“And” between values parts separate entries of the source, which are not always exact repeats. Equal values may be shown once. Numbers after ± are expanded uncertainties.
Conditions: Crystal

Structure (SMILES): N.O=C(O)C(F)(F)C(F)(F)C(F)(F)C(F)(F)C(F)(F)C(F)(F)C(F)(F)F [ammonium perfluorooctanoate]
- vapor or sublimation pressure (318.35 K): 3e-05 ± 1e-05 kPa
- vapor or sublimation pressure (318.45 K): 2e-05 ± 1e-05 kPa
- vapor or sublimation pressure (318.55 K): 3e-05 ± 1e-05 kPa and 5e-05 ± 2e-05 kPa
- vapor or sublimation pressure (318.75 K): 1e-05 ± 1e-05 kPa
- vapor or sublimation pressure (318.85 K): 7e-05 ± 3e-05 kPa
- vapor or sublimation pressure (328.25 K): 7e-05 ± 3e-05 kPa
- vapor or sublimation pressure (328.35 K): 6e-05 ± 3e-05 kPa
- vapor or sublimation pressure (328.45 K): 6e-05 ± 3e-05 kPa
- vapor or sublimation pressure (328.65 K): 9e-05 ± 4e-05 kPa and 0.00019 ± 8e-05 kPa
- vapor or sublimation pressure (328.75 K): 4e-05 ± 2e-05 kPa and 9e-05 ± 4e-05 kPa and 6e-05 ± 3e-05 kPa
- vapor or sublimation pressure (328.85 K): 0.00014 ± 6e-05 kPa and 6e-05 ± 3e-05 kPa and 0.00011 ± 5e-05 kPa
- vapor or sublimation pressure (333.15 K): 9e-05 ± 4e-05 kPa
- vapor or sublimation pressure (333.35 K): 0.00023 ± 9e-05 kPa
- vapor or sublimation pressure (333.65 K): 0.00013 ± 5e-05 kPa [middle of 4 runs]
- vapor or sublimation pressure (333.75 K): 0.00021 ± 9e-05 kPa

— the NIST ThermoML archive (doi:10.1021/je800418m)
